Values joined by “and” are separate entries in the source; they are usually repeats but may differ in a detail not shown here. Identical values can stand only once.
Tests used:
[1] = tested on: LTB4-induced dermal inflammation; test: Rabbit model of LTB4-induced dermal inflammation, histopathology of intradermal challenge sites; format: in vivo, New Zealand White Rabbits; design: key to Inflammation score / Edema score: 0=normal; T=trace; 1=minimal; 2=mild; 3=moderate; 4=marked; conditions: test article IP 60 mg/kg (dexamethasone 0.5 mg/kg); for Inflammation score / Edema score: 4 hr after challenge
Procedure: Test compounds were prepared as follows. The vehicle was first prepared by dissolving […] of hydroxypropylmethylcellulose 2910 (HPMC)(Sigma Chemical, St. Louis, Mo.) in 50 mL of 0.9% saline to yield a concentration of 2% HPMC. The three test articles, (R)-, (S)- and racemic tofisopam, were formulated by adding 1 g of each test article to 10 mL of vehicle.
On Day 0, the rabbits were sedated with ketamine/xylazine (35/5 mg/kg, s.c.) and an area of approximately 8×14 cm on the back was closely and carefully clipped to expose the skin, but not inflame or otherwise damage the epithelium. A grid of ten squares each approximately 2.5×2.5 cm was drawn on each animal's back using an indelible marker. The animals were then dosed intraperitoneally with the appropriate test article corresponding to the group. Thirty minutes after dosing with test or control article, the animals were challenged intradermally with the LTB4 or LTB4-aminopropamide (LTB4-AP, a synthetic LTB4 agonist) in the appropriate site as shown in Table 4. Each injection site was marked with an indelible marker in order to identify the exact location of the intradermal injection site. Sixty minutes after challenge, the animals were treated again with tofisopam or control articles. The animals were sacrificed 4 hrs. after challenge, and the intradermal injection sites were excised, fixed in 10% neutral buffered formalin (NBF), and submitted for histopathology. H&E-stained sections were read by a board-certified veterinary pathologist using light microscopy.
All animals were sacrificed 4 hr after challenge. The intradermal challenge sites were excised, placed on unique cardboard squares, fixed in 10% NBF, and submitted for histopathology. The skin sections included the epidermis and the subcutis, down to the back musculature.
The marked skin sections were fixed for at least 48 hours on small cardboard squares. At gross trimming, three levels were cut through marked skin region in order to assure that the injection sites is brought into the plane of section. The skins were gross trimmed, processed by dehydration, embedded in paraffin, sectioned at 3-5 μm, and stained with hematoxylin and eosin.
The tissues were evaluated histopathologically via light microscopy by a board-certified veterinary pathologist. Initially, the identity of the slides was masked in order to perform the initial evaluation and rank the slides. The slides were then unmasked and there was a careful assessment of the lesions and careful comparison of the tofisopam-treated sites to the vehicle and positive control tissues. The lesions were graded based upon the degree of inflammation and the degree of edema. The severity of the inflammation and edema was keyed as follows: 0=normal; T=trace; 1=minimal; 2=mild; 3=moderate; 4=marked.

DSS-induced colitis = test: Dextran sulfate sodium induced colitis: mouse model of inflammatory bowel disease; format: in vivo, Swiss Webster mice; conditions: for Mean DAI ± SEM: DSS 5% in tap water; for Mean DAI* ± SEM: DAI without weight loss parameter; for % of normal length: colon length
Procedure: In this model of colitis, an acute inflammation of the colon was produced by administration of dextran sulfate sodium (DSS) as a 5% solution in tap water. This colitis was characterized by histological events and an influx of neutrophils, macrophages and mediators of inflammation similar to those observed with human inflammatory bowel diseases. […] The following study was conducted in accordance with protocols of Okayasu et al., Gastroenterology, 98:694-702, 1990.
One hundred ten test animals (female, 6 week old Swiss Webster mice, 18-30 g) were divided into ten groups, selected to eliminate any statistical differences in mean group weight.
Each animal was dosed daily (IP) with either a test substance or vehicle, starting on Day 0. Beginning on Day 1, acute colon inflammation was induced by the administration ad libitum in drinking water of dextran sulfate sodium (DSS) as a 5% solution in tap water (10 mL/mouse/day for 5-6 days), with no other fluid source for animals in the DSS arm of the study. Filtered tap water was available ad libitum except for animals receiving 5% DSS as the sole source of fluid. After four days, signs of acute disease occured with the loss of weight, diarrhea and bloody stools. Histological changes included initial shortening of the crypts, then areas of separation of the crypts and the muscularis mucosae in the absence of destructive inflammatory filtrate. After five days, pathological changes became confluent with the appearance of erosions and early hyperplastic epithelium. Inflammation scores were high with neutrophils, lymphocytes, and plasma cells in the lamina propria but sparing the epithelium.
Test compounds were administered intraperitoneally (IP). Test compounds given during this period were evaluated for prophylactic activity and test compounds given after the disease state was established were evaluated for therapeutic activity.
Test animals were weighed daily from Day 0 to Day 8, or until completion of the study. The total duration of the study with DSS arm of the study was varied depending on the time progress of colitis. The condition of the test animals and consistency of stools was noted.
At the conclusion of the study, test animals were euthanized (CO2), a midline incision was made and a stool sample was obtained. The sample was placed on a slide and tested for occult blood (Quic-Cult™, Laboratory Diagnostics Co., Morganville, N.J.). Occult blood was determined by placing two drops of the reagent onto the sample and observing any color change. Occult blood presence was graded using a scoring protocol assigning a score of 0 for no color; 1 for a very light blue color (+/−) forming in >30 seconds; 2 for a blue color developing in 30 seconds or more (+); 3 for a change in color occurring in less than 30 seconds (++); and 4 for gross blood observable on the slide. The colon was gently stretched and the length from the colon-cecal junction to the end of the distal rectum was measured to the nearest 0.1 cm.
The scores for each test animal were added and then divided by three to give a DAI score for each animal.

[2] = injection site: LTB4 2000 ng, listed as (R,S)-tofisopam
[3] = injection site: LTB-ap 2000 ng, listed as (R,S)-tofisopam

## CCC1C(C)=NN=C(c2ccc(OC)c(OC)c2)c2cc(OC)c(OC)cc21 (racemic) [Racemic tofisopam, Racemic-1-(3,4-dimethoxyphenyl)-4-methyl-5-ethyl-7,8-dimethoxy-5H-2,3-benzodiazepine]
[1]; injection site: LTB4 500 ng
  Inflammation score: 2
[1]; injection site: LTB4 500 ng, listed as (R,S)-tofisopam
  Edema score: 2 and 3
[1]; injection site: LTB4 1000 ng
  Edema score: 3
[1]; injection site: LTB4 1000 ng, listed as (R,S)-tofisopam
  Inflammation score: 3 and 2
[1]; [2]
  Edema score: 2 and 1 and 3
  Inflammation score: 2 and 1 and 3
[1]; injection site: LTB-ap 500 ng
  Inflammation score: 2
[1]; injection site: LTB-ap 500 ng, listed as (R,S)-tofisopam
  Edema score: 2 and 3
[1]; injection site: LTB-ap 1000 ng
  Edema score: 3
  Inflammation score: 3
[1]; [3]
  Edema score: 2 and 1 and 3
  Inflammation score: 2 and 1
[1]; injection site: Vehicle 0 ng
  Inflammation score: 1
[1]; injection site: Vehicle 0 ng, listed as (R,S)-tofisopam
  Edema score: 2 and 1
[1]; summary in words
  Histopathology finding: reduction of inflammation and edema: no meaningful reduction in the inflammation and edema
DSS-induced colitis; 16 mg/kg IP daily, DSS 5%
  Mean colon length CM ± SEM: 8.2 ± 0.32 CM
  Mean weight ± SEM, Day 0: 25.9 ± 0.4 g
  % weight change ± SEM, Day 8: 3.1 ± 1.5%
  Mean weight ± SEM, Day 8: 25.1 ± 0.6 g
  % weight change ± SEM, Day 9: 7.4 ± 2.5%
  Mean weight ± SEM, Day 9: 24.0 ± 0.8 g
  % weight change ± SEM, Day 10: 13.3 ± 3.1%
  Mean weight ± SEM, Day 10: 22.5 ± 1.0 g
  Mean DAI* ± SEM: 2.61 ± 0.30
  % of normal length: 65.4%
DSS-induced colitis; 16 mg/kg IP daily
  Mean DAI ± SEM: 2.59 ± 0.27
DSS-induced colitis; 32 mg/kg IP daily, DSS 5%
  Mean colon length CM ± SEM: 8.3 ± 0.11 CM
  Mean weight ± SEM, Day 0: 26.1 ± 0.4 g
  % weight change ± SEM, Day 8: 1.8 ± 1.5%
  Mean weight ± SEM, Day 8: 25.6 ± 0.4 g
  % weight change ± SEM, Day 9: 5.3 ± 2.0%
  Mean weight ± SEM, Day 9: 24.7 ± 0.6 g
  % weight change ± SEM, Day 10: 8.0 ± 2.4%
  Mean weight ± SEM, Day 10: 24.0 ± 0.7 g
  Mean DAI* ± SEM: 2.65 ± 0.28
  % of normal length: 66.7%
DSS-induced colitis; 32 mg/kg IP daily
  Mean DAI ± SEM: 2.37 ± 0.33
DSS-induced colitis; 64 mg/kg IP daily, DSS 5%
  Mean colon length CM ± SEM: 8.2 ± 0.18 CM
  Mean weight ± SEM, Day 0: 25.8 ± 0.3 g
  % weight change ± SEM, Day 8: 1.2 ± 2.1%
  Mean weight ± SEM, Day 8: 25.5 ± 0.7 g
  % weight change ± SEM, Day 9: 5.1 ± 2.5%
  Mean weight ± SEM, Day 9: 24.5 ± 0.8 g
  % weight change ± SEM, Day 10: 8.9 ± 3.1%
  Mean weight ± SEM, Day 10: 23.5 ± 0.9 g
  Mean DAI* ± SEM: 3.25 ± 0.26
  % of normal length: 65.5%
DSS-induced colitis; 64 mg/kg IP daily
  Mean DAI ± SEM: 2.87 ± 0.31
DSS-induced colitis; Mus musculus, 16 mg/kg IP daily, DSS 5%, read-out: Colon shortening inhib. %
  inhibition at 16 mg/kg: 7%
DSS-induced colitis; Mus musculus, 32 mg/kg IP daily, DSS 5%, read-out: Colon shortening inhib. %
  inhibition at 32 mg/kg: 9%
DSS-induced colitis; Mus musculus, 64 mg/kg IP daily, DSS 5%, read-out: Colon shortening inhib. %
  inhibition at 64 mg/kg: 7%

From US6864251B2, “Treatment of LTB4-mediated inflammatory disorders with optically-pure (R)-2,3-benzodiazepines” (Vela Pharmaceuticals, Inc., priority 2002, dated 2005)
